Here are results for 18 molecules from patent US11814391B2, “Macrocyclic compounds for the treatment of medical disorders” (Achillion Pharmaceuticals, Inc., priority 2018, dated 2023).

The structures appear in SMILES notation.

This test deals with Human Factor D (Homo sapiens (Human), UniProt P00746). Nature of the test: Human Factor D assay. The class given is biochemical. The conditions noted are these: Human Factor D 80 nM, substrate Z-L-Lys-SBzl, A405; read-out: IC50 (Stars). How it is done: The assay of Example 3 was used to determine the IC50's of the compounds. Other standard factor D inhibition assays are also available.
Sequence of Human Factor D (P00746 26-253): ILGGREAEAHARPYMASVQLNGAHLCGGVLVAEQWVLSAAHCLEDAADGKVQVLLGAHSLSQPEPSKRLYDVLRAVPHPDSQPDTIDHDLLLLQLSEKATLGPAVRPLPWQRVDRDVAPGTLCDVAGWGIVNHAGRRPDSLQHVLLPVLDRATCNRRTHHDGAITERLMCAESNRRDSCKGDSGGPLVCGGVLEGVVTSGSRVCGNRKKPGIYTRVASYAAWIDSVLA
Human Factor D (purified from human serum, Complement Technology, Inc.) at 80 nM final concentration is incubated with test compound at various concentrations for 5 min at room temperature in 50 mM Tris, 1M NaCl, pH 7.5. A synthetic substrate Z-L-Lys-SBzI and DTNB (Ellman's reagent) are added to final concentrations of 100 μM each. Absorbance at 405 nm (A405) is recorded at 30 second intervals for 30 min using a microplate spectrophotometer. IC50 values are calculated by nonlinear regression of complement Factor D reaction rates as a function of test compound concentration.

As usually defined, the IC50 is the midpoint of a concentration-inhibition curve. Consider `CC(=O)c1nn2c3c(cc(-c4cnc(C)nc4)cc13)CCCCC[C@@H](C)C(=O)NC[C@@]13C[C@@H](C(=O)Nc4nc(C(F)(F)F)ccc4C)N(C(=O)C2)[C@@H]1C3` [Compound 8, (4^1R,4^3S,4^5R,8R)-1^3-acetyl-8-methyl-N-(3-methyl-6-(trifluoromethyl)pyridin-2-yl)-1^5-(2-methylpyrimidin-5-yl)-3,7-dioxo-1^1H-4^2,6-diaza-1(1,7)-indazola-4(2,5)-bicyclo[3.1.0]hexanacyclotridecaphane-4^3-carboxamide], for which the IC50 was < 1000 nM.

Turning to `CC(=O)c1nn2c3c(cc(-c4cnc(C)nc4)cc13)CCCCC[C@@H](C)C(=O)NC[C@@]13C[C@@H](C(=O)Nc4cc(F)cc(Br)n4)N(C(=O)C2)[C@@H]1C3` [Compound 9, (4^1R,4^3S,4^5R,8R)-1^3-acetyl-N-(6-bromo-4-fluoropyridin-2-yl)-8-methyl-1^5-(2-methylpyrimidin-5-yl)-3,7-dioxo-1^1H-4^2,6-diaza-1(1,7)-indazola-4(2,5)-bicyclo[3.1.0]hexanacyclotridecaphane-4^3-carboxamide], the IC50 is < 1000 nM.

On to `CC(=O)c1nn2c3c(cc(-c4cnc(C)nc4)cc13)CCCCCC(C)(C)C(=O)NC[C@@]13C[C@@H](C(=O)Nc4nc(C(F)(F)F)ccc4C)N(C(=O)C2)[C@@H]1C3` [Compound 10, (4^1R,4^3S,4^5R)-1^3-acetyl-8,8-dimethyl-N-(3-methyl-6-(trifluoromethyl)pyridin-2-yl)-1^5-(2-methylpyrimidin-5-yl)-3,7-dioxo-1^1H-4^2,6-diaza-1(1,7)-indazola-4(2,5)-bicyclo[3.1.0]hexanacyclotridecaphane-4^3-carboxamide], for which the IC50 is < 1000 nM.

On to `CC(=O)c1nn2c3c(cc(-c4cnc(C)nc4)cc13)CCCCCCC(=O)NC[C@@]13C[C@@H](C(=O)Nc4nc(C5CC5)ccc4C)N(C(=O)C2)[C@@H]1C3` [Compound 11, (4^1R,4^3S,45^R)-1^3-acetyl-N-(6-cyclopropyl-3-methylpyridin-2-yl)-15-(2-methylpyrimidin-5-yl)-3,7-dioxo-1^1H-4^2,6-diaza-1(1,7)-indazola-4(2,5)-bicyclo[3.1.0]hexanacyclotridecaphane-4^3-carboxamide], for which the 50% inhibitory concentration (IC50) was < 1000 nM.

Turning to `CC(=O)c1nn(CC(=O)N(C)[C@H]2CCCCCCCCCc3ccc(Br)nc3NC2=O)c2ccc(-c3cnc(C)nc3)cc12` [Compound 12, (S)-2-(3-acetyl-5-(2-methylpyrimidin-5-yl)-1H-indazol-1-yl)-N-(2-bromo-15-oxo-5,6,7,8,9,10,11,12,13,14, 15,16-dodecahydropyrido[2,3-b][1]azacyclotetradecin-14-yl)-N-methylacetamide], the half-inhibitory concentration (IC50) is 1000 to 10000 nM.

Consider `CC(=O)c1nn2c3c(cc(-c4cnc(C)nc4)cc13)C/C=C/CCCC(=O)N(C)C[C@@]13C[C@@H](C(=O)Nc4cc(F)cc(Br)n4)N(C(=O)C2)[C@@H]1C3` [Compound 13, (4^1R,4^3S,4^5R,E)-1^3-acetyl-N-(6-bromo-4-fluoropyridin-2-yl)-6-methyl-1^5-(2-methylpyrimidin-5-yl)-3,7-dioxo-1^1H-4^2,6-diaza-1(1,7)-indazola-4(2,5)-bicyclo[3.1.0]hexanacyclotridecaphan-11-ene-4^3-carboxamide], for which the IC50 was < 1000 nM.

`CC(=O)c1nn2c3c(cc(-c4cnc(C)nc4)cc13)CCCCCCC(=O)N(C)C[C@@]13C[C@@H](C(=O)Nc4cc(F)cc(Br)n4)N(C(=O)C2)[C@@H]1C3` [Compound 14, (4^1R,4^3S,4^5R)-1^3-acetyl-N-(6-bromo-4-fluoropyridin-2-yl)-6-methyl-1^5-(2-methylpyrimidin-5-yl)-3,7-dioxo-1^1H-4^2,6-diaza-1(1,7)-indazola-4(2,5)-bicyclo[3.1.0]hexanacyclotridecaphane-4^3-carboxamide]: the IC50 was < 1000 nM.

In the case of `CC(=O)c1nn2c3c(cc(N)cc13)CCCCCCC(=O)NC[C@@]13C[C@@H](C(=O)Nc4nc(C(F)(F)F)ccc4C)N(C(=O)C2)[C@@H]1C3` [Compound 15, (4^1R,4^3S,4^5R)-1^3-acetyl-1^5-amino-N-(3-methyl-6-(trifluoromethyl)pyridin-2-yl)-3,7-dioxo-1^1H-4^2,6-diaza-1(1,7)-indazola-4(2,5)-bicyclo[3.1.0]hexanacyclotridecaphane-4^3-carboxamide], the IC50 was < 1000 nM.

Consider `CC(=O)c1nn2c3c(cc(-c4cnc(C)nc4)cc13)CCCCC[C@@H](C)C(=O)NC[C@@]13C[C@@H](C(=O)Nc4ccc(F)c(Br)n4)N(C(=O)C2)[C@@H]1C3` [Compound 16, (4^1R,4^3S,4^5R,8R)-1^3-acetyl-N-(6-bromo-5-fluoropyridin-2-yl)-8-methyl-1^5-(2-methylpyrimidin-5-yl)-3,7-dioxo-1^1H-4^2,6-diaza-1(1,7)-indazola-4(2,5)-bicyclo[3.1.0]hexanacyclotridecaphane-4^3-carboxamide], for which the IC50 is < 1000 nM.

With `CC(=O)c1nn2c3c(cc(OCC(C)C)cc13)CCCCCCC(=O)NC[C@@]13C[C@@H](C(=O)Nc4nc(C(F)(F)F)ccc4C)N(C(=O)C2)[C@@H]1C3` [Compound 17, (4^1R,4^3S,4^5R)-1^3-acetyl-1^5-isobutoxy-N-(3-methyl-6-(trifluoromethyl)pyridin-2-yl)-3,7-dioxo-1^1H-4^2,6-diaza-1(1,7)-indazola-4(2,5)-bicyclo[3.1.0]hexanacyclotridecaphane-4^3-carboxamide], the IC50 was < 1000 nM.

For `CC(=O)c1nn2c3c(cc(C)cc13)CCCCCCC(=O)NC[C@@]13C[C@@H](C(=O)Nc4nc(C(F)(F)F)ccc4C)N(C(=O)C2)[C@@H]1C3` [Compound 18, (4^1R,4^3S,4^5R)-1^3-acetyl-1^5-methyl-N-(3-methyl-6-(trifluoromethyl)pyridin-2-yl)-3,7-dioxo-1^1H-4^2,6-diaza-1(1,7)-indazola-4(2,5)-bicyclo[3.1.0]hexanacyclotridecaphane-4^3-carboxamide], the IC50 was < 1000 nM.

Regarding `CC(=O)c1nn2c3c(cc(OC(C)C)cc13)CCCCCCC(=O)NC[C@@]13C[C@@H](C(=O)Nc4nc(C(F)(F)F)ccc4C)N(C(=O)C2)[C@@H]1C3` [Compound 19, (4^1R,4^3S,4^5R)-1^3-acetyl-1^5-isopropoxy-N-(3-methyl-6-(trifluoromethyl)pyridin-2-yl)-3,7-dioxo-1^1H-4^2,6-diaza-1(1,7)-indazola-4(2,5)-bicyclo[3.1.0]hexanacyclotridecaphane-4^3-carboxamide], the IC50 is < 1000 nM.

Turning to `CC(=O)c1nn2c3c(cc(CCC(C)C)cc13)CCCCCCC(=O)NC[C@@]13C[C@@H](C(=O)Nc4nc(C(F)(F)F)ccc4C)N(C(=O)C2)[C@@H]1C3` [Compound 20, (4^1R,4^3S,4^5R)-1^3-acetyl-1^5-isopentyl-N-(3-methyl-6-(trifluoromethyl)pyridin-2-yl)-3,7-dioxo-1^1H-4^2,6-diaza-1(1,7)-indazola-4(2,5)-bicyclo[3.1.0]hexanacyclotridecaphane-4^3-carboxamide], the half-maximal inhibitory concentration (IC50) is < 1000 nM.

For `CC(=O)c1nn2c3c(cc(C(C)C)cc13)CCCCCCC(=O)NC[C@@]13C[C@@H](C(=O)Nc4nc(C(F)(F)F)ccc4C)N(C(=O)C2)[C@@H]1C3` [Compound 21, (4^1R,4^3S,4^5R)-1^3-Acetyl-1^5-isopropyl-N-(3-methyl-6-(trifluoromethyl)pyridin-2-yl)-3,7-dioxo-1^1H-4^2,6-diaza-1(1,7)-indazola-4(2,5)-bicyclo[3.1.0]hexanacyclotridecaphane-4^3-carboxamide], the IC50 was < 1000 nM.

As to `CC(=O)c1nn2c3c(cc(-c4cnc5cc(C)nn5c4)cc13)CCCCC[C@@H](C)C(=O)NC[C@@]13C[C@@H](C(=O)Nc4nc(C(F)(F)F)ccc4C)N(C(=O)C2)[C@@H]1C3` [Compound 22, (4^1R,4^3S,4^5R,8R)-1^3-acetyl-8-methyl-N-(3-methyl-6-(trifluoromethyl)pyridin-2-yl)-15-(2-methylpyrazolo[1,5-a]pyrimidin-6-yl)-3,7-dioxo-1^1H-4^2,6-diaza-1(1,7)-indazola-4(2,5)-bicyclo[3.1.0]hexanacyclotridecaphane-4^3-carboxamide], the IC50 was < 1000 nM.

Consider `CC(=O)c1nn2c3c(cc(-c4cnc(C)cn4)cc13)CCCCC[C@@H](C)C(=O)NC[C@@]13C[C@@H](C(=O)Nc4nc(C(F)(F)F)ccc4C)N(C(=O)C2)[C@@H]1C3` [Compound 23, (4^1R,4^3S,4^5R,8R)-1^3-acetyl-8-methyl-N-(3-methyl-6-(trifluoromethyl)pyridin-2-yl)-15-(5-methylpyrazin-2-yl)-3,7-dioxo-1^1H-4^2,6-diaza-1(1,7)-indazola-4(2,5)-bicyclo[3.1.0]hexanacyclotridecaphane-4^3-carboxamide], for which the IC50 was < 1000 nM.

As for `CC(=O)c1nn2c3c(cc(NCC(C)C)cc13)CCCCCCC(=O)NC[C@@]13C[C@@H](C(=O)Nc4nc(C(F)(F)F)ccc4C)N(C(=O)C2)[C@@H]1C3` [Compound 24, (4^1R,4^3S,4^5R)-1^3-acetyl-15-(isobutylamino)-N-(3-methyl-6-(trifluoromethyl)pyridin-2-yl)-3,7-dioxo-1^1H-4^2,6-diaza-1(1,7)-indazola-4(2,5)-bicyclo[3.1.0]hexanacyclotridecaphane-4^3-carboxamide], the IC50 was < 1000 nM.

Turning to `CC(=O)c1nn2c3c(cc(NC(C)C)cc13)CCCCCCC(=O)NC[C@@]13C[C@@H](C(=O)Nc4nc(C(F)(F)F)ccc4C)N(C(=O)C2)[C@@H]1C3` [Compound 25, (4^1R,4^3S,4^5R)-1^3-acetyl-1^5-(isopropylamino)-N-(3-methyl-6-(trifluoromethyl)pyridin-2-yl)-3,7-dioxo-1^1H-4^2,6-diaza-1(1,7)-indazola-4(2,5)-bicyclo[3.1.0]hexanacyclotridecaphane-4^3-carboxamide], the IC50 is < 1000 nM.
